# Tested on: feline calicivirus
# Experiment: Antiviral activity value (Mv) by methods of JIS L 1922, plaque count measurement of virus infectivity
# Experimental: The performance of each of the above antiviral agents was evaluated by applying methods shown in JIS L 1922 (antiviral property test method of fiber product), and an antiviral activity value (Mv) obtained was used to determine the antiviral property. […] Purified water was added to the antiviral agent so that its concentration was 0.1% by mass. Next, 100 μL of feline calicivirus solution having a virus infectivity of 1 to 5×10^7 PFU/mL was added to 900 μL of the above liquid, and a mixed liquid was allowed to stand at a temperature of 25° C. for 2 hours. Thereafter, the mixed liquid was recovered, and the recovered liquid was subjected to a plaque count measurement method to measure the virus infectivity. The virus infectivity was measured in the same manner as the test sample except that 900 μL of phosphate buffered saline (PBS) was used as a control sample instead of the test sample. The performance of the antiviral agent was evaluated by the antiviral activity value (Mv) obtained by the following formula. Mv=Log (virus infectivity of control sample)−Log (virus infectivity of test sample)
compound,measurement,value
"[Ca+2].[OH-].[OH-] [V3, calcium hydroxide]",Antiviral activity value Mv,4.2
same,antiviral properties (assessment in words),excellent antiviral properties

# Reference: patent US20210386071A1, “ANTI-NON-ENVELOPED VIRUS AGENT AND COMPOSITION CONTAINING SAME, AND ANTI-VIRAL PRODUCT AND METHOD FOR PRODUCING SAME” (TOAGOSEI CO., LTD., priority 2018, published 2021)
